Measured values taken from PMC11167047 (Cell Death Discovery, 2024).

Columns and labels:
Assay in all cases: kinome screen (33PanQinase)
Format in all cases: biochemical
CK2α1 = biological target: T1, CK2α1 (Homo sapiens, UniProt P68400)
T1 construct: purchased Reaction Biology Europe GmbH (formerly ProQinase)
Protocol: (§1) The Kinome Screening was performed by Reaction Biology Europe GmbH (http://reactionbiology.com; Freiburg i. Br., Germany).

NEK7 = biological target: T2, NEK7 (Homo sapiens, UniProt Q8TDX7)
T2 construct: purchased Reaction Biology Europe GmbH (formerly ProQinase)
T2 sequence (Q8TDX7 whole entry): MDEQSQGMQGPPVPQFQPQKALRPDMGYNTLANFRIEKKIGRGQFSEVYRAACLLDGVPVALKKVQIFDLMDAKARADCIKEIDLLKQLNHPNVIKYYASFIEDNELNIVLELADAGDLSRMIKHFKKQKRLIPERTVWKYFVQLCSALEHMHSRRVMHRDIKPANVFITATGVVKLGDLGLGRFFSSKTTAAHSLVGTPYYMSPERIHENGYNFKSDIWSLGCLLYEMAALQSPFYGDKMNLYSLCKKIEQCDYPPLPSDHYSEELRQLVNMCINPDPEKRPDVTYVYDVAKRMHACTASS
Protocol: as §1

PKCα = biological target: T3, PKCα (Homo sapiens, UniProt P17252)
T3 construct: purchased Reaction Biology Europe GmbH (formerly ProQinase)
Protocol: as §1

MAP3K1 = biological target: T4, MAP3K1 (Homo sapiens, UniProt Q13233)
T4 construct: purchased Reaction Biology Europe GmbH (formerly ProQinase)
Protocol: as §1

AuroraB = biological target: T5, AuroraB (Homo sapiens, UniProt Q96GD4)
T5 construct: purchased Reaction Biology Europe GmbH (formerly ProQinase)
T5 sequence (Q96GD4 whole entry): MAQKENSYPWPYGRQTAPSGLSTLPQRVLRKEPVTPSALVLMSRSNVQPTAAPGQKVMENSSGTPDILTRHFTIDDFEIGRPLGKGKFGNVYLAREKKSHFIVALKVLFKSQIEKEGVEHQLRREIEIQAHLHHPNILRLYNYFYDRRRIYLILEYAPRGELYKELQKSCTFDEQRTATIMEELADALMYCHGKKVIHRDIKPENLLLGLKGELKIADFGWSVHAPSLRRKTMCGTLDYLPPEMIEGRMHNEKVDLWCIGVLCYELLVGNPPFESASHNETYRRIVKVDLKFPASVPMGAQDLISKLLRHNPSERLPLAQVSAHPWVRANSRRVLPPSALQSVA
Protocol: as §1

TRKC = biological target: T6, TRKC (Homo sapiens, UniProt Q16288)
T6 construct: purchased Reaction Biology Europe GmbH (formerly ProQinase)
Protocol: as §1

TIE2 = biological target: T7, TIE2 (Homo sapiens, UniProt Q02763)
T7 construct: purchased Reaction Biology Europe GmbH (formerly ProQinase)
T7 sequence (Q02763 23-1124): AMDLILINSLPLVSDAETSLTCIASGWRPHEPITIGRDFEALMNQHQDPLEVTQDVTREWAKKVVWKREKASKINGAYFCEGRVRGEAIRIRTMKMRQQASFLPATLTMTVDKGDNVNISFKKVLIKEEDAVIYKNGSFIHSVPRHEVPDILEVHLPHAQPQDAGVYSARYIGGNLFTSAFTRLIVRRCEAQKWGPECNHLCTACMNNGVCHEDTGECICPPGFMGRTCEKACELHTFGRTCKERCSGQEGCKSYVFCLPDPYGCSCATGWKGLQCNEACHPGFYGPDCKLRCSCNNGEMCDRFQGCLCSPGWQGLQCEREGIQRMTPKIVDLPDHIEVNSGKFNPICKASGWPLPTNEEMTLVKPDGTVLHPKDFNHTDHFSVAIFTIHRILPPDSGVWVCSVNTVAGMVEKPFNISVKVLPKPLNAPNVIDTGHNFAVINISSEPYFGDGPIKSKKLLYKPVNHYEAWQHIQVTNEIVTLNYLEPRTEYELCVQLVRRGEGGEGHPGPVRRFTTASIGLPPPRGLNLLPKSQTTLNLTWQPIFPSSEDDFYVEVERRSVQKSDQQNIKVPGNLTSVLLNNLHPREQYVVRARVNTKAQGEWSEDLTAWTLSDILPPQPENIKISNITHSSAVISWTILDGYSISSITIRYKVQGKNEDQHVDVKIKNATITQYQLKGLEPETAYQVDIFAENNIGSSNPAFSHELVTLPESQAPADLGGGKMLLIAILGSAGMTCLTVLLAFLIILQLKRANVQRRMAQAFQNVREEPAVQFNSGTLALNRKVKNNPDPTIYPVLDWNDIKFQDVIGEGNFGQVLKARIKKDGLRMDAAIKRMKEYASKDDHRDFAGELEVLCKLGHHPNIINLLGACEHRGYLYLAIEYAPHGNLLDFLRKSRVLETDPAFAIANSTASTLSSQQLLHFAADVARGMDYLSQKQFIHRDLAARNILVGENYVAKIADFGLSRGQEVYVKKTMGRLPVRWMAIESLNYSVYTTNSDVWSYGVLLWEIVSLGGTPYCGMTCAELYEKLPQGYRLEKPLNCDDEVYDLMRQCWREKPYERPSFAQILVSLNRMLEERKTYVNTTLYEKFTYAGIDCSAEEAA
Protocol: as §1

STK23 = biological target: T8, STK23 (Homo sapiens, UniProt Q9UPE1)
T8 construct: purchased Reaction Biology Europe GmbH (formerly ProQinase)
T8 sequence (Q9UPE1 whole entry): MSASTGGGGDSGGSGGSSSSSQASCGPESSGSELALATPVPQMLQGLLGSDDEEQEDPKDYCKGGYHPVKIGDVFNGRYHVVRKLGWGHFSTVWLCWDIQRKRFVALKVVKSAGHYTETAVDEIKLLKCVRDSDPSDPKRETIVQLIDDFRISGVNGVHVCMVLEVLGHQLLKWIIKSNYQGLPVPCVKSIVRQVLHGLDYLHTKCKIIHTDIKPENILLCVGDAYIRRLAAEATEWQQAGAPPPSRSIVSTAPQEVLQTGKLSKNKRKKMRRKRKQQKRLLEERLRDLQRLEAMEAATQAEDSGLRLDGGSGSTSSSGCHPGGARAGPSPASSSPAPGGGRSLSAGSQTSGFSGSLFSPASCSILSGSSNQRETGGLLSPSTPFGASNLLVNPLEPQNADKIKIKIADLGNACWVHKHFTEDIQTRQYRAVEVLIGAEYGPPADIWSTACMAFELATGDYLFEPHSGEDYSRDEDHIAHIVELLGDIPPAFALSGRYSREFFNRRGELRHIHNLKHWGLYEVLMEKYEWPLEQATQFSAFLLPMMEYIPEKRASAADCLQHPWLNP
Protocol: as §1

FRK = biological target: T9, FRK (Homo sapiens, UniProt P42685)
T9 construct: purchased Reaction Biology Europe GmbH (formerly ProQinase)
T9 sequence (P42685 whole entry): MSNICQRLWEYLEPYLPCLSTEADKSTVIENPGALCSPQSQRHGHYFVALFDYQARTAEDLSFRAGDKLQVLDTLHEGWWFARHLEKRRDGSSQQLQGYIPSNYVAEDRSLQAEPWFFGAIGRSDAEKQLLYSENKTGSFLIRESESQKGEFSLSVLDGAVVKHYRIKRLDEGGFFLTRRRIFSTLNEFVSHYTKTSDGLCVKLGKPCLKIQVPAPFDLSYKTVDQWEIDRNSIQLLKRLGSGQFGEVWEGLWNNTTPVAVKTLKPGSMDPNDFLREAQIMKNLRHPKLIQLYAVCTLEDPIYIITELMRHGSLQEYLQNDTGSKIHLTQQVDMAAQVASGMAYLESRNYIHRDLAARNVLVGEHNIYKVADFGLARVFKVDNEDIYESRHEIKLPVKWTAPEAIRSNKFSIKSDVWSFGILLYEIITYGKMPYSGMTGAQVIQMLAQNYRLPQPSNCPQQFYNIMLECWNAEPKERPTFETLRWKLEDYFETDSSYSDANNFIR
Protocol: as §1

AKT1 = biological target: T10, AKT1 (Homo sapiens, UniProt P31749)
T10 construct: purchased Reaction Biology Europe GmbH (formerly ProQinase)
T10 sequence (P31749 whole entry): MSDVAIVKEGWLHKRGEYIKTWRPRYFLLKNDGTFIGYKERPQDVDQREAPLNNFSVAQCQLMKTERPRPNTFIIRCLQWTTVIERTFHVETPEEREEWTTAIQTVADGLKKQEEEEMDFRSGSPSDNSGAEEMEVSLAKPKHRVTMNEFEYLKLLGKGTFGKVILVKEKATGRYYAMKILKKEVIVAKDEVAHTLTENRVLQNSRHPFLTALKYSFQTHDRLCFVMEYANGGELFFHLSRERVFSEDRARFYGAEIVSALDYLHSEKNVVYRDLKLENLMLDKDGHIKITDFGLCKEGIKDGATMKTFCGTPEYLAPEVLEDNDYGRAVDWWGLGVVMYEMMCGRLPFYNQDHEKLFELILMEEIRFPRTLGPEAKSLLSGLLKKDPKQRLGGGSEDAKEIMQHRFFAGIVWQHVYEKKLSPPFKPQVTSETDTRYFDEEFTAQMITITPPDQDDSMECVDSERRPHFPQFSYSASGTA
Protocol: as §1

ACVRL1 = biological target: T11, ACVRL1 (Homo sapiens, UniProt P37023)
T11 construct: purchased Reaction Biology Europe GmbH (formerly ProQinase)
Protocol: as §1

EPHB1 = biological target: T12, EPHB1 (Homo sapiens, UniProt P54762)
T12 construct: purchased Reaction Biology Europe GmbH (formerly ProQinase)
T12 sequence (P54762 18-984): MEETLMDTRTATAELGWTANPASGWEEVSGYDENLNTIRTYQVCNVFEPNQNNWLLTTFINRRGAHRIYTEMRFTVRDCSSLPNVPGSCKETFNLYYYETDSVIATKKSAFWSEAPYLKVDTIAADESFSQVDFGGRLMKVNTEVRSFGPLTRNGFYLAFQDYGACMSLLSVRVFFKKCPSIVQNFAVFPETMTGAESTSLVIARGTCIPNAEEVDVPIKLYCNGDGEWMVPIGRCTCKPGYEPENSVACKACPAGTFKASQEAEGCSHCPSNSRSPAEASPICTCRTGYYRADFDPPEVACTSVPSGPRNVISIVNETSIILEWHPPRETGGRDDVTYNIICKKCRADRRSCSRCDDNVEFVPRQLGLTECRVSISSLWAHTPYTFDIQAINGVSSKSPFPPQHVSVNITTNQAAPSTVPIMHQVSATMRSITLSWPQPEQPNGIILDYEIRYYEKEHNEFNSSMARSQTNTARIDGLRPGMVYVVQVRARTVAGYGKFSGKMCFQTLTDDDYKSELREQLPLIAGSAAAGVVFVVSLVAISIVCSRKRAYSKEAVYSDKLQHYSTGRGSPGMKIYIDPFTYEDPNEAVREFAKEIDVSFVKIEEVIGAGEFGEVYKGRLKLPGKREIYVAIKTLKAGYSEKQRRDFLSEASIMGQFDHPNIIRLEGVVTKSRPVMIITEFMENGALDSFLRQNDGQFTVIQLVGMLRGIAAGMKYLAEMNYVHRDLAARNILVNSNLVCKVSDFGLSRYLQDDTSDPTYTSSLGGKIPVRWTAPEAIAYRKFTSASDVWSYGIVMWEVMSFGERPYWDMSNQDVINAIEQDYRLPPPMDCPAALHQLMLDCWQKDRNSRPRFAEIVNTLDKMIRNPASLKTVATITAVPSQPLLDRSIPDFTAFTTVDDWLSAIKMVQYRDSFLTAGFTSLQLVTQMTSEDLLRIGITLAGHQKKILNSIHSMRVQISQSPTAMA
Protocol: as §1

PRKX = biological target: T13, PRKX (Homo sapiens, UniProt P51817)
T13 construct: purchased Reaction Biology Europe GmbH (formerly ProQinase)
T13 sequence (P51817 1-358): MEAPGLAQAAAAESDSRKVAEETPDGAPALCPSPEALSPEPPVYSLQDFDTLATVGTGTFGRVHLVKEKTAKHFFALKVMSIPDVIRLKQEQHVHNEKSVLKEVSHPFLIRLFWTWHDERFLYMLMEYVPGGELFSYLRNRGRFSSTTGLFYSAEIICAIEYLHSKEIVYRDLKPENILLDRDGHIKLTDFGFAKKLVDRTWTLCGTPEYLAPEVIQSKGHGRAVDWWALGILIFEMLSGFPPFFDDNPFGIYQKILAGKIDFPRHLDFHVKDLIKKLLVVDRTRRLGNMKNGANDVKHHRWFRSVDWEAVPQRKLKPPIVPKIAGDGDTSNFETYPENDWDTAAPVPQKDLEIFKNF
Protocol: as §1

PIM1 = biological target: T14, PIM1 (Homo sapiens, UniProt P11309)
T14 construct: purchased Reaction Biology Europe GmbH (formerly ProQinase)
T14 sequence (P11309 whole entry): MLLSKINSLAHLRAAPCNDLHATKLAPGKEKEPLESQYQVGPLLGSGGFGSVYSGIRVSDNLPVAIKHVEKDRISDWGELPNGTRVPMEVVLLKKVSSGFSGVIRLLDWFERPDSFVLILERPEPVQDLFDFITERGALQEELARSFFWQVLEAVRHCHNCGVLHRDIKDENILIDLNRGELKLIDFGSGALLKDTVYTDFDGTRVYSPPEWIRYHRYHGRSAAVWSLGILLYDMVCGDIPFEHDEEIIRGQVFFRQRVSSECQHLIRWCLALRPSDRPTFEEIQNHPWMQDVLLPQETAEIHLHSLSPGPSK
Protocol: as §1

DYRK1A = biological target: T15, DYRK1A (Homo sapiens, UniProt Q13627)
T15 construct: purchased Reaction Biology Europe GmbH (formerly ProQinase)
Protocol: as §1

T1 sequence (P68400 whole entry): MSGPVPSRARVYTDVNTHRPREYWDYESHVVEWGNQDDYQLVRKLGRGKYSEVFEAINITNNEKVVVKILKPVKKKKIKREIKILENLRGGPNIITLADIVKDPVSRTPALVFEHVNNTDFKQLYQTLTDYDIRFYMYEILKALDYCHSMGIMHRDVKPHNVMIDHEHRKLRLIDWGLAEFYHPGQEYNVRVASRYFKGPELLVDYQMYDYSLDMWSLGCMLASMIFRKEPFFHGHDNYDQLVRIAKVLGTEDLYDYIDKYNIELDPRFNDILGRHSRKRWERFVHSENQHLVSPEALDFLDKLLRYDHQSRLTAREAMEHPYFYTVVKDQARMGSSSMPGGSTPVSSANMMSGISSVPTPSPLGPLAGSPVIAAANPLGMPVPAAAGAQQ

SMILES | residual kinase activity (CK2α1; 0.3 µM) | residual kinase activity (NEK7; 0.3 µM) | residual kinase activity (PKCα; 0.3 µM) | residual kinase activity (MAP3K1; 0.3 µM) | residual kinase activity (AuroraB; 0.3 µM) | residual kinase activity (TRKC; 0.3 µM) | residual kinase activity (TIE2; 0.3 µM) | residual kinase activity (STK23; 0.3 µM) | residual kinase activity (FRK; 0.3 µM) | residual kinase activity (AKT1; 0.3 µM) | residual kinase activity (ACVRL1; 0.3 µM) | residual kinase activity (EPHB1; 0.3 µM) | residual kinase activity (PRKX; 0.3 µM) | residual kinase activity (PIM1; 0.3 µM) | residual kinase activity (DYRK1A; 0.3 µM) | also measured
COc1ccnc2[nH]cc(-c3cc(N)nc(N)c3)c12 [meriolin 16] | 104 % of control | 96 % of control | 80 % of control | 106 % of control | 61 % of control | 36 % of control | 105 % of control | 78 % of control | 99 % of control | 70 % of control | 89 % of control | 97 % of control | 3 % of control | 40 % of control | 2 % of control | residual kinase activity (CK2α1; 0.03 µM): 106 % of control; residual kinase activity (NEK7; 0.03 µM): 111 % of control; residual kinase activity (PKCα; 0.03 µM): 95 % of control; residual kinase activity (MAP3K1; 0.03 µM): 105 % of control; residual kinase activity (AuroraB; 0.03 µM): 85 % of control; residual kinase activity (TRKC; 0.03 µM): 72 % of control; residual kinase activity (TIE2; 0.03 µM): 132 % of control; residual kinase activity (STK23; 0.03 µM): 109 % of control; residual kinase activity (FRK; 0.03 µM): 103 % of control; residual kinase activity (AKT1; 0.03 µM): 96 % of control; residual kinase activity (ACVRL1; 0.03 µM): 101 % of control; residual kinase activity (EPHB1; 0.03 µM): 98 % of control; residual kinase activity (PRKX; 0.03 µM): 54 % of control; residual kinase activity (PIM1; 0.03 µM): 77 % of control; residual kinase activity (DYRK1A; 0.03 µM): 11 % of control
c1ccc(CNc2cc(-c3c[nH]c4ncccc34)ccn2)cc1 [meriolin 36] | 99 % of control | 103 % of control | 49 % of control | 94 % of control | 67 % of control | 18 % of control | 113 % of control | 95 % of control | 54 % of control | 89 % of control | 43 % of control | 124 % of control | 15 % of control | 55 % of control | 7 % of control | residual kinase activity (CK2α1; 3 µM): 53 % of control; residual kinase activity (NEK7; 3 µM): 107 % of control; residual kinase activity (PKCα; 3 µM): 11 % of control; residual kinase activity (MAP3K1; 3 µM): 93 % of control; residual kinase activity (AuroraB; 3 µM): 26 % of control; residual kinase activity (TRKC; 3 µM): 2 % of control; residual kinase activity (TIE2; 3 µM): 65 % of control; residual kinase activity (STK23; 3 µM): 88 % of control; residual kinase activity (FRK; 3 µM): 16 % of control; residual kinase activity (AKT1; 3 µM): 41 % of control; residual kinase activity (ACVRL1; 3 µM): 9 % of control; residual kinase activity (EPHB1; 3 µM): 79 % of control; residual kinase activity (PRKX; 3 µM): -1 % of control; residual kinase activity (PIM1; 3 µM): 14 % of control; residual kinase activity (DYRK1A; 3 µM): 0 % of control
